Source: patent publication US10604535B2, “Compounds, compositions and methods” (Denali Therapeutics Inc., priority 2016, dated 2020)
Like-named read-outs stand apart in the source and are kept apart here.

What was measured:
[1] = tested on: human cryopreserved hepatocytes
Experimental: (§4) The metabolic stability of compounds was evaluated in human cryopreserved hepatocytes (BioreclamationlVT, NY, USA) in duplicate. Test articles (or controls) were added to a 24-well incubation plate (Becton Dickinson Labware, USA) containing 0.5×10^6 hepatocytes/mL in suspension. The plate was held at 37° C. and agitated with constant orbital shaking (orbital speed at 350 rpm). At each time point (0, 5, 10, 15, 20, 30, 45, 60, 90, 120, 150 and 180 min) a Tecan Evo robot aspirated 50 μL of the incubation mixture and 100 μL of acetonitrile containing internal standard to quench the reaction. […] Samples were centrifuged (3000 rpm for 10 minutes) and the plate sealed prior to injection onto an LC-MS/MS system.
(§5) The appropriate parent/daughter ions were monitored for the test article and IS with the LC-MS/MS system. The intrinsic clearance (Clint; expressed μL/min/million cells) was determined from the first order elimination constant (k, min^−1) of test article decay and the volume of the incubation. […] The intrinsic organ CL was then converted to the hepatic clearance (CLhep) using the well-stirred model as shown below, where Qh is human hepatic blood flow.
(§6) Hepatic clearance is expressed as mL/min/kg. The hepatic clearance relates to the flow of blood through the liver that is completely cleared of the compound.

[2] = molecular target: GST-hRIPK1 (8-327) (Homo sapiens (Human), UniProt Q13546); test: Fluorescent Polarization Binding (FP Binding) assay
[3] = male, Beagle, in vivo, iv
[4] = tested on: human cryopreserved hepatocytes; test: Metabolic stability (hepatocytes); settings: for Human hepatocyte CLhep Avg: human cryopreserved hepatocytes; for clearance as % of liver blood flow: corresponding to human CLhep
Experimental: as §4, §5, §6

[5] = male, Sprague-Dawley Crl:CD(SD), in vivo, iv
[6] = male, cynomolgus monkey, in vivo, iv
[7] = tested on: P-gp (MDR1); test: MDCKII-MDR1 permeability, efflux ratio; assay type: in vitro ADME; settings: dog, MDCK-MDR1, pH 7.4, MDCKII-MDR1, 3 μM, read-out: ER MDR1
Experimental: (§1) The blood brain barrier (BBB) separates circulating blood from the extracellular fluid of the central nervous system (CNS). The passive membrane permeability (Papp) and the P-gp (P-glycoprotein) substrate efflux potential were determined using the MDCKII-MDR1 cell line as an in vitro model of the effective permeability of a compound through the BBB. A bidirectional assay (Apical to Basolateral (A→B) and Basolateral to Apical (B→A)), in the absence and in the presence of GF120918 (a P-gp inhibitor) was conducted using pre-plated MDCKII-MDR1 cells (Corning HTS Transwell-96) obtained from SOLVO Biotechnology. The assay was run at 3 μM for 90 min (minutes) in triplicate using a HBSS+12.5 mM HEPES pH 7.4 transport buffer. Following incubation of samples from donor and receiver, wells were removed and measured by LC-MS/MS. Samples were extracted by protein precipitation with acetonitrile containing an appropriate internal standard (IS) having a known mass and molecular weight. The precipitate was centrifuged for 10 min at 3000 rpm (revolutions per minute). The supernatants were then collected, diluted if necessary, and injected on to the LC-MS/MS system. […] Papp (apparent permeability expressed in nm/sec [nanometer/second]) values were calculated according to the following equation: […]
(§2) Where dQ/dt is the permeability rate, C0 is the initial concentration in the donor solution (expressed as IS ratio), A and B are the surface areas of the filter (the surface area of the cell monolayer).
(§3) Monolayer efflux ratios (ER) were derived using the following equation: […]

[8] = tested on: FADD-deficient Jurkat cells; test: Cellular necroptosis assay (human TNFα-induced necrosis, CellTiter-Glo); assay type: cell-based; settings: Homo sapiens, Jurkat, 48 h, TNFα 10 ng/mL, read-out: Cell IC50
[9] = tested on: MDCKII-MDR1 cell line; test: MDCKII-MDR1 permeability, efflux ratio; assay type: in vitro ADME; settings: MDCKII-MDR1, 3 μM, 90 min
Experimental: as §1, §2, §3

[10] = tested on: TNF/zVAD; settings: 30 mg/kg, from Table 2 of WO 2014/125444; cited from earlier work

Chain of GST-hRIPK1 (8-327) (Q13546 8-327): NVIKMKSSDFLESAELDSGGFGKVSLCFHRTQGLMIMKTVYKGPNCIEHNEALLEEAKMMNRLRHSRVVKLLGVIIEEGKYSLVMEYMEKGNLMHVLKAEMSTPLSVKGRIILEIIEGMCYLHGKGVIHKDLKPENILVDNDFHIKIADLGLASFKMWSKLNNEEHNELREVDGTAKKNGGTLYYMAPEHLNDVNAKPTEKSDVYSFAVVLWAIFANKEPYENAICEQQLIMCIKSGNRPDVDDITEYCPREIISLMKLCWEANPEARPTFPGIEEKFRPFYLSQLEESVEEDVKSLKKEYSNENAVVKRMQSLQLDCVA

SMILES | Dog unbound CL [3] [mL/min/kg] | Human hepatocyte CLhep Avg [4] [mL/min/kg] | Rat unbound CL [5] [mL/min/kg] | Cyno unbound CL [6] [mL/min/kg] | Human hepatocyte CLhep Avg [1] [mL/min/kg] | IC50 [2] [nM] | further results
CN1C(=O)[C@@H](NC(=O)c2cc(Cc3ccccc3)on2)CC2(CC2)c2ccccc21 [Example 9, (S)-5-benzyl-N-(1-methyl-2-oxo-1,2,3,4-tetrahydrospiro[benzo[b]azepine-5,1′-cyclopropan]-3-yl)isoxazole-3-carboxamide] | – | – | – | – | 19 | 0.1 to 1000 | –
CN1C(=O)[C@@H](NC(=O)c2nnc(C3(c4ccccc4)CC3)o2)COc2cccnc21 [Example 66, (S)—N-(5-methyl-4-oxo-2,3,4,5-tetrahydropyrido[3,2-b][1,4]oxazepin-3-yl)-5-(1-phenylcyclopropyl)-1,3,4-oxadiazole-2-carboxamide] | 36 | 6.3 | – | – | – | – | –
CN1C(=O)[C@@H](NC(=O)c2cc(C3(c4ccccc4)CC3)on2)COc2ccccc21 [Example 8, (S)—N-(5-methyl-4-oxo-2,3,4,5-tetrahydrobenzo[b][1,4]oxazepin-3-yl)-5-(1-phenylcyclopropyl)isoxazole-3-carboxamide] | – | – | 3700 | – | 19 | 0.1 to 1000 | –
CN1C(=O)[C@@H](NC(=O)c2nnc(Cc3ccccc3)[nH]2)[C@H]2C[C@H]2c2nccnc21 [Example 119B, 5-benzyl-N-((7S,7aS,8aR)-5-methyl-6-oxo-5,6,7,7a,8,8a-hexahydrocyclopropa[d]pyrazino[2,3-b]azepin-7-yl)-4H-1,2,4-triazole-3-carboxamide] | – | 0 | 20 | 26 | – | 0.1 to 1000 | efflux ratio at 90 min, 3 μM [7]: 18
CN1C(=O)[C@@H](NC(=O)c2nnc(Cc3ccccc3)o2)COc2ccccc21 [B, reference compound] | – | 14 | – | – | – | – | IC50 [8]: 0.3 nM; ER MDR1 [9]: 1.0

Continued, in another order:

Dog unbound CL [3] [mL/min/kg] | Human hepatocyte CLhep Avg [4] [mL/min/kg] | Rat unbound CL [5] [mL/min/kg] | Cyno unbound CL [6] [mL/min/kg] | SMILES | Human hepatocyte CLhep Avg [1] [mL/min/kg] | IC50 [2] [nM] | further results
64 | 0.8 | 22 | 42 | CN1C(=O)[C@@H](NC(=O)c2nnc(Cc3ccccc3)[nH]2)COc2cccnc21 [Example 42, (S)-5-benzyl-N-(5-methyl-4-oxo-2,3,4,5-tetrahydropyrido[3,2-b][1,4]oxazepin-3-yl)-4H-1,2,4-triazole-3-carboxamide] | – | – | clearance as % of liver blood flow [4]: less than 4%
– | – | 32 | – | CN1C(=O)[C@@H](NC(=O)c2ncn(Cc3cccc(C#N)c3)n2)COc2cccnc21 [Example 171, (S)-1-(3-cyanobenzyl)-N-(5-methyl-4-oxo-2,3,4,5-tetrahydropyrido[3,2-b][1,4]oxazepin-3-yl)-1H-1,2,4-triazole-3-carboxamide] | 5.1 | – | –
– | 4.2 | 55 | 58 | CN1C(=O)[C@@H](NC(=O)c2nnc(Cc3ccccc3)o2)[C@H]2C[C@H]2c2nccnc21 [Example 177A, 5-benzyl-N-((7S,7aS,8aR)-5-methyl-6-oxo-5,6,7,7a,8,8a-hexahydrocyclopropa[d]pyrazino[2,3-b]azepin-7-yl)-1,3,4-oxadiazole-2-carboxamide] | – | 0.1 to 1000 | efflux ratio at 90 min, 3 μM [7]: 1.4
240 | 6.8 | 77 | – | CN1C(=O)[C@@H](NC(=O)c2nnc(Cc3ccccc3)[nH]2)COc2ccccc21 [A, reference compound] | – | – | IC50 [8]: 0.5 nM; inhibition of temperature loss [10]: 93%; clearance as % of liver blood flow [4]: approximately 32%
